From US20260070945A1, “MACROCYCLIC IMMUNOMODULATORS” (Bristol-Myers Squibb Company, priority 2022, published 2026)
*1 amine or outer side, *2 acyl side, *3 side chain or, on linkers, in order; H or OH if unused. Where a SMILES comes first, the peptide text is derived from it. Bridges are numbered along the chain shown (N, C = ends). [ ]: non-standard residue; d: D form. The star is where a group is joined. ξ: configuration not given here. Phe(4-COOH) = N[C@@H](Cc1ccc(C(=O)O)cc1)C(=O)O; Bip = N[C@@H](Cc1ccc(-c2ccccc2)cc1)C(=O)O; γGlu = O=C(O)[C@H](CCC(=O)[*:2])N[*:1]; 3Pal = N[C@@H](Cc1cccnc1)C(=O)O; 4Pal = N[C@@H](Cc1ccncc1)C(=O)O; Cha = N[C@@H](CC1CCCCC1)C(=O)O; Ile(3ξ) = CCC(C)[C@H](N)C(=O)O; Thr(3ξ) = CC(O)[C@H](N)C(=O)O; Ala(CN) = N#CC[C@H](N)C(=O)O; Carboxymethyl = O=C(O)C*; NMeA = CN[C@@H](C)C(=O)O; Orn = NCCC[C@H](N)C(=O)O; dDap = NC[C@@H](N)C(=O)O; Aun = NCCCCCCCCCCC(=O)O; Dab = NCC[C@H](N)C(=O)O; Dap = NC[C@H](N)C(=O)O; AEEA = NCCOCCOCC(=O)O

The compounds below were run against T1, PD-1/PD-L1 interaction (PE-labeled human PD-L1-Ig binding to Jurkat cell line over-expressing human PD-1) (Homo sapiens, UniProt Q15116) (assay: Jurkat-PD-1 Cell Binding High-Content Screening Assay (CBA)). Details: Jurkat-hPD-1 cells, PE-labeled PD-L1-Ig 20 nM final; read-out: Jurkat HPD1 PDL1 IC50.
T1 construct: expressed in transfected cells; host or cells: Jurkat
In short: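 Jurkat cells overexpressing human PD-1 (8×10^3/well, DMEM + 10% FCS) preincubated with compound 2 h at 37 °C, then PE-labelled human PD-L1-Ig (20 nM final) for 1 h. Cells fixed in paraformaldehyde with Hoechst 33342; bound PD-L1 quantified by high-content imaging.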

T1 sequence (Q15116 25-288): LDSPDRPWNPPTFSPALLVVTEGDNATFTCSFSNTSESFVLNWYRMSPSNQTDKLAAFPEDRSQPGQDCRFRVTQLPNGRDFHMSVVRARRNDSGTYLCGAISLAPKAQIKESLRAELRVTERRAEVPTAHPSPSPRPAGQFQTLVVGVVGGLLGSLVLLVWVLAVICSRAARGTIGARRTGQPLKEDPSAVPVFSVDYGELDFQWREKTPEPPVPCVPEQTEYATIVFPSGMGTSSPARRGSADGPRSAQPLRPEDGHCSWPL

`CCC(C)[C@@H]1NC(=O)[C@H](Cc2ccc(-c3ccccc3)cc2)NC(=O)[C@H](C(C)C)NC(=O)[C@H](Cc2c[nH]c3ccccc23)NC(=O)[C@H](CC(=O)O)NC(=O)[C@H](Cc2ccc(OCC(=O)O)cc2)NC(=O)[C@H](C(C)O)NC(=O)CSC[C@@H](C(=O)N[C@H](CC(N)=O)C(=O)NCCOCCOCC(=O)N[C@@H](CCC(=O)N[C@@H](CCCN)C(=O)NCCCCCCCCCCC(=O)O)C(=O)O)NC(=O)[C@H](CO)NC(=O)[C@H](C(C)C)NC(=O)[C@H](CC(C)C)NC(=O)[C@H](CCN)NC(=O)[C@@H](CC(C)C)NC(=O)[C@H](C)N(C)C1=O` (stereo partly drawn) [Example 2051] ({CH2CO}-[Thr(3ξ)]Y(Carboxymethyl)DWV[Bip][Ile(3ξ)][NMeA][dL][Dab]LVSC[dN][AEEA][γGlu][Orn][Aun]-OH; thioether N-14) and `CCC(C)[C@@H]1NC(=O)[C@H](Cc2ccc(-c3ccccc3)cc2)NC(=O)[C@H](C(C)C)NC(=O)[C@H](Cc2c[nH]c3ccccc23)NC(=O)[C@H](CC(=O)O)NC(=O)[C@H](Cc2ccc(OCC(=O)O)cc2)NC(=O)[C@H](Cc2cccnc2)NC(=O)CSC[C@@H](C(=O)N[C@H](CC(N)=O)C(=O)NCCOCCOCC(=O)N[C@@H](CCC(=O)N[C@@H](CCCN)C(=O)NCCCCCCCCCCC(=O)O)C(=O)O)NC(=O)[C@H](CO)NC(=O)[C@H](C(C)C)NC(=O)[C@H](CC(C)C)NC(=O)[C@H](CCN)NC(=O)[C@@H](CC(C)C)NC(=O)[C@H](C)N(C)C1=O` (stereo partly drawn) [Example 2060] ({CH2CO}-[3Pal]Y(Carboxymethyl)DWV[Bip][Ile(3ξ)][NMeA][dL][Dab]LVSC[dN][AEEA][γGlu][Orn][Aun]-OH; thioether N-14) are within 1.5-fold of each other in IC50: 109 nM for the first, 78 nM for the second.

`CCC(C)[C@@H]1NC(=O)[C@H](Cc2ccc(-c3ccccc3)cc2)NC(=O)[C@H](CC(C)C)NC(=O)[C@H](Cc2c[nH]c3ccccc23)NC(=O)[C@H](CC(=O)O)NC(=O)[C@H](Cc2ccc(OCC(=O)O)cc2)NC(=O)[C@H](C(C)O)NC(=O)CSC[C@@H](C(=O)NCCOCCOCC(=O)N[C@@H](CCCN)C(=O)NCCCCCCCCCCC(=O)O)NC(=O)[C@H](CO)NC(=O)[C@H](C(C)C)NC(=O)[C@H](CC(C)C)NC(=O)[C@H](CC(N)=O)NC(=O)[C@@H](CC(C)C)NC(=O)[C@H](C)N(C)C1=O` (stereo partly drawn) [Example 2052] ({CH2CO}-[Thr(3ξ)]Y(Carboxymethyl)DWL[Bip][Ile(3ξ)][NMeA][dL]NLVSC[AEEA][Orn][Aun]-OH; thioether N-14) and `CCC(C)[C@@H]1NC(=O)[C@H](Cc2ccc(-c3ccccc3)cc2)NC(=O)[C@H](CC(C)C)NC(=O)[C@H](Cc2c[nH]c3ccccc23)NC(=O)[C@H](CC(=O)O)NC(=O)[C@H](Cc2ccc(OCC(=O)O)cc2)NC(=O)[C@H](C(C)O)NC(=O)CSC[C@@H](C(=O)N[C@H](CC(N)=O)C(=O)NCCOCCOCC(=O)NCCCCCCCCCCC(=O)O)NC(=O)[C@H](CO)NC(=O)[C@H](C(C)C)NC(=O)[C@H](CC(C)C)NC(=O)[C@H](CCN)NC(=O)[C@@H](CC(C)C)NC(=O)[C@H](C)N(C)C1=O` (stereo partly drawn) [Example 2058] ({CH2CO}-[Thr(3ξ)]Y(Carboxymethyl)DWL[Bip][Ile(3ξ)][NMeA][dL][Dab]LVSC[dN][AEEA][Aun]-OH; thioether N-14) are within 1.5-fold of each other in IC50: 79.1 nM for the first, 59.9 nM for the second.

Compared with `CCC(C)[C@@H]1NC(=O)[C@H](Cc2ccc(-c3ccccc3)cc2)NC(=O)[C@H](CC(C)C)NC(=O)[C@H](Cc2c[nH]c3ccccc23)NC(=O)[C@H](CC(=O)O)NC(=O)[C@H](Cc2ccc(O)cc2)NC(=O)[C@H](Cc2ccncc2)NC(=O)CSC[C@@H](C(=O)N[C@@H](CN)C(=O)NCCOCCOCC(=O)NCCCCCCCCCCC(=O)O)NC(=O)[C@H](CO)NC(=O)[C@H](C(C)C)NC(=O)[C@H](CC(C)C)NC(=O)[C@H](CC(N)=O)NC(=O)[C@@H](CC(C)C)NC(=O)[C@H](C)N(C)C1=O` (stereo partly drawn) [Example 2053] ({CH2CO}-[4Pal]YDWL[Bip][Ile(3ξ)][NMeA][dL]NLVSC[Dap][AEEA][Aun]-OH; thioether N-14), `CCC(C)[C@@H]1NC(=O)[C@H](Cc2ccc(-c3ccccc3)cc2)NC(=O)[C@H](C(C)C)NC(=O)[C@H](Cc2c[nH]c3ccccc23)NC(=O)[C@H](CC(=O)O)NC(=O)[C@H](Cc2ccc(O)cc2)NC(=O)[C@H](CC(N)=O)NC(=O)CSC[C@@H](C(=O)N[C@H](CC(N)=O)C(=O)NCCOCCOCC(=O)NCCCCCCCCCCC(=O)O)NC(=O)[C@H](CO)NC(=O)[C@H](C(C)C)NC(=O)[C@H](CC(C)C)NC(=O)[C@H](CCN)NC(=O)[C@@H](CC(C)C)NC(=O)[C@H](C)N(C)C1=O` (stereo partly drawn) [Example 2059] ({CH2CO}-NYDWV[Bip][Ile(3ξ)][NMeA][dL][Dab]LVSC[dN][AEEA][Aun]-OH; thioether N-14) is 1.9-fold lower in IC50: 66.2 nM for the first, 34.2 nM for the second. The second is the more potent here.

Compared with `CCC(C)[C@@H]1NC(=O)[C@H](Cc2ccc(-c3ccccc3)cc2)NC(=O)[C@H](CC(C)C)NC(=O)[C@H](Cc2c[nH]c3ccccc23)NC(=O)[C@H](CC(=O)O)NC(=O)[C@H](Cc2ccc(O)cc2)NC(=O)[C@H](CC#N)NC(=O)CSC[C@@H](C(=O)N[C@@H](CN)C(=O)NCCOCCOCC(=O)NCCCCCCCCCCC(=O)O)NC(=O)[C@H](CO)NC(=O)[C@H](C(C)C)NC(=O)[C@H](CC2CCCCC2)NC(=O)[C@H](CCN)NC(=O)[C@@H](CC(C)C)NC(=O)[C@H](C)N(C)C1=O` (stereo partly drawn) [Example 2054] ({CH2CO}-[Ala(CN)]YDWL[Bip][Ile(3ξ)][NMeA][dL][Dab][Cha]VSC[Dap][AEEA][Aun]-OH; thioether N-14), `CCC(C)[C@@H]1NC(=O)[C@H](Cc2ccc(-c3ccccc3)cc2)NC(=O)[C@H](CC(C)C)NC(=O)[C@H](Cc2c[nH]c3ccccc23)NC(=O)[C@H](CC(=O)O)NC(=O)[C@H](Cc2ccc(O)cc2)NC(=O)[C@H](Cc2ccccc2)NC(=O)CSC[C@@H](C(=O)N[C@@H](CN)C(=O)NCCOCCOCC(=O)NCCCCCCCCCCC(=O)O)NC(=O)[C@H](CO)NC(=O)[C@H](C(C)C)NC(=O)[C@H](CC2CCCCC2)NC(=O)[C@H](CCN)NC(=O)[C@@H](CC(C)C)NC(=O)[C@H](C)N(C)C1=O` (stereo partly drawn) [Example 2055] ({CH2CO}-FYDWL[Bip][Ile(3ξ)][NMeA][dL][Dab][Cha]VSC[Dap][AEEA][Aun]-OH; thioether N-14) is 7.1-fold higher in IC50: 14.3 nM for the first, 101 nM for the second. The first is the more potent here.

First: CCC(C)[C@@H]1NC(=O)[C@H](Cc2ccc(-c3ccccc3)cc2)NC(=O)[C@H](CC(C)C)NC(=O)[C@H](Cc2c[nH]c3ccccc23)NC(=O)[C@H](CC(=O)O)NC(=O)[C@H](Cc2ccc(C(=O)O)cc2)NC(=O)[C@H](Cc2ccc(OCC(=O)O)cc2)NC(=O)CSC[C@@H](C(=O)NCCOCCOCC(=O)N[C@H](CN)C(=O)NCCOCCOCC(=O)NCCCCCCCCCCC(=O)O)NC(=O)[C@H](CO)NC(=O)[C@H](C(C)C)NC(=O)[C@H](CC2CCCCC2)NC(=O)[C@H](CCN)NC(=O)[C@@H](CC(C)C)NC(=O)[C@H](C)N(C)C1=O (stereo partly drawn) [Example 2056] ({CH2CO}-Y(Carboxymethyl)[Phe(4-COOH)]DWL[Bip][Ile(3ξ)][NMeA][dL][Dab][Cha]VSC[AEEA][dDap][AEEA][Aun]-OH; thioether N-14)
Second: CCC(C)[C@@H]1NC(=O)[C@H](Cc2ccc(-c3ccccc3)cc2)NC(=O)[C@H](CC(C)C)NC(=O)[C@H](Cc2c[nH]c3ccccc23)NC(=O)[C@H](CC(=O)O)NC(=O)[C@H](Cc2ccc(O)cc2)NC(=O)[C@H](Cc2ccncc2)NC(=O)CSC[C@@H](C(=O)N[C@H](CC(N)=O)C(=O)NCCOCCOCC(=O)N[C@@H](CCN)C(=O)NCCOCCOCC(=O)NCCCCCCCCCCC(=O)O)NC(=O)[C@H](CO)NC(=O)[C@H](C(C)C)NC(=O)[C@H](CC(C)C)NC(=O)[C@H](CC(N)=O)NC(=O)[C@@H](CC(C)C)NC(=O)[C@H](C)N(C)C1=O (stereo partly drawn) [Example 2061] ({CH2CO}-[4Pal]YDWL[Bip][Ile(3ξ)][NMeA][dL]NLVSC[dN][AEEA][Dab][AEEA][Aun]-OH; thioether N-14)
The IC50 of the first is 39-fold lower: 20 nM for the first, 777 nM for the second.
